Reference: PubChem BioAssay AID1963830 (Molecular Pharmacology Branch, DTP, NCI, 2024)
Values joined by “and” are separate entries in the source; they are usually repeats but may differ in a detail not shown here. Equal values may be shown once.

System: 922993-354-T-J3-PDC complex spheroid viability
Assay: Anticancer human tumor 922993-354-T-J3-PDC patient-derived endometrial carcinoma cell line growth inhibition [POLQ]
Details: for viability, T/C: stronger effect = lower value
Procedure: Multicellular complex tumor spheroid response to Polymerase (POL) inhibitors (novobiocin, ART-558, RP6685) in combination with a variety of drugs and investigational agents in selected tumor cell lines
The POL inhibitors (novobiocin, ART-558, and RP6685) were evaluated both individually and in combination with standard of care and investigational anticancer small molecules within a complex spheroid model of solid tumors. . Complex spheroids include a stromal component modeled by human endothelial cells (HUVEC) and fibroblasts modeled by human mesenchymal stem cells (MSCs). The concentration ranges selected for each drug and investigational agent were based upon clinically achievable concentrations if the clinical Cmax of the agent was known.
Compounds. The drugs and investigational agents: novobiocin (NSC847541), ART-558 (NSC835418), RP-6685 (NSC848927), peposertib (NSC802822), ceralasertib (NSC780249), elimusertib (NSC800525), camonsertib (NSC841442), AZD-1390 (NSC803789), olaparib (NSC753686), talazoparib (NSC767125), rucaparib (NSC756644), sotorasib (NSC818433), MRTX-1133 (NSC836407), SN-38 (NSC673596), topotecan (NSC609699), epotoside (NSC141540), doxorubicin (NSC123127), gemcitabine (NSC613327), 5-fluorouracil (NSC19893), paclitaxel (NSC125973), vemurafenib (NSC761431), MSA-2 (NSC828583), SN-011 (NSC837082), adavosertib (NSC754352), prexasertib (NSC758257), carboplatin (NSC241240) and oxaliplatin (NSC266046), were obtained from the National Cancer Institute (NCI) Developmental Therapeutics Program Chemical Repository (21). The FDA-approved anticancer drug set is available from the Developmental Therapeutics Program at https://dtp.cancer.gov/organization/dscb/obtaining/. […] The stock solutions were prepared in dimethyl sulfoxide (DMSO, Sigma-Aldrich, St. Louis, MO, cat. D2650), except for the platinum compounds which were prepared in saline (Quality Biological, Gaithersburg, MD, cat. 114-055-101), at 800-fold the tested concentration and stored at -70 degrees C prior to their use. All drugs and investigational agents were tested over a range starting from a high concentration at or near the clinical Cmax and decreasing in half-log increments. If the clinical Cmax for an agent had not been determined, the highest concentration tested was 10 microM, except for SN-38, which was tested at a high concentration of 1 microM.
Cell Culture. All cells were maintained in an incubator at 37 degrees C and 5% CO2 with 95% humidity. The PDC lines were cultured according to standard operating procedures established by the NCI PDMR (https://pdmr.cancer.gov). Table 3 of the manuscript, lists the cell lines along with the number of the three cell types plated to form the mct-spheroids and media for tumor cell growth. After thawing, all PDC lines, except 997537-175-T-J1-PDC and 415267-285-R-J2-PDC, were cultured in Matrigel-coated flasks prepared with a working solution of 1X Ham's F-12 nutrient mix, without supplementation (Thermo Fisher Scientific, cat. 11765054), 100 U/mL penicillin-streptomycin (Thermo Fisher Scientific, cat. 15140122), and 2.5% Matrigel (Corning Inc., Corning, NY, cat. 354248) for the first three passages. The two PDC lines 997537-175-T-J1-PDC and 415267-285-R-J2-PDC were cultured on uncoated flasks. The 857933-349-R-J2-PDC line was cultured in 6C/Colon 1B media containing advanced DMEM/F-12 (Thermo Fisher Scientific, cat. 12634028), 10 mM HEPES (Thermo Fisher Scientific, cat. 15630080), 1X GlutaMAX supplement (Thermo Fisher Scientific, cat. 35050061), 0.1 mg/mL primocin (InvivoGen, San Diego, CA, cat. ant-pm-2), 10% defined fetal bovine serum, heat inactivated (HyClone Laboratories Inc., Logan, UT, cat. SH30070.03HI), 50% L-WRN conditioned media (ATCC, cat. CRL-3276), 1.25 mM N-Acetyl-L-cysteine (Sigma-Aldrich, cat. A9165), 10 mM nicotinamide (Sigma-Aldrich, cat. N0636), 1X B-27 supplement (Thermo Fisher Scientific, cat. 17504044), 1X N-2 supplement (Thermo Fisher Scientific, cat. […]
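Note: spheroids exposed to the agents for one week.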
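Throughout, for viability, T/C: 100% = DMSO vehicle control wells.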

Row | SMILES | viability, T/C (compound 0.0316 µM) | viability, T/C (compound 0.1 µM) | viability, T/C (compound 0.316 µM) | viability, T/C (compound 1 µM) | viability, T/C (compound 3.16 µM) | viability, T/C (compound 10 µM) | IC50 (compound alone, run of 10/31/2023) | IC50 (curve of compound) | viability, T/C (compound 0.00316 µM) | viability, T/C (compound 0.01 µM)
1 | COC1C(OC(N)=O)C(O)C(Oc2ccc3c(O)c(NC(=O)c4ccc(O)c(CC=C(C)C)c4)c(=O)oc3c2C)OC1(C)C (configuration not stated) | 100% [middle of 13 runs] | 102% [middle of 13 runs] | 98.2% [middle of 13 runs] | 101% [middle of 13 runs] | 97.6% [middle of 13 runs] | 93.8% [middle of 13 runs] | > 10 µM |  |  | 
2 | COc1cc(C2c3cc4c(cc3C(OC3OC5COC(C)OC5C(O)C3O)C3COC(=O)C23)OCO4)cc(OC)c1O (configuration not stated) | 90.2% and 98.8% and 103% | 95.9% and 102% and 93.7% | 85.3% and 104% and 92.5% | 97.9% and 104% and 97.5% | 84.4% and 99.5% and 83.6% | 42.3% and 81.9% and 37% |  | 8.15 µM and > 10 µM and 7.3 µM |  | 
3 | COc1cc2cc(C(=O)CCC(=O)O)sc2cc1OC | 106% (2×) and 103% | 100% and 98.9% and 101% | 108% and 102% and 98.9% | 99.2% and 104% (2×) | 106% and 105% and 116% | 85.2% and 83.3% and 64.8% |  | > 10 µM |  | 
4 | COc1ccc([C@@H](O)c2cc(-c3ncnc4cc(N5CCOCC5)ccc34)c(F)cc2Cl)nn1 | 95.5% and 103% and 107% | 84.6% and 101% and 89.6% | 99.2% and 98.3% and 96.1% | 92.9% and 97.3% and 99.2% | 78.1% and 90.2% and 83.4% | 57% and 75% and 62.1% |  | > 10 µM |  | 
5 | COc1cccc(OCCCN)c1-c1cc(Nc2cnc(C#N)cn2)n[nH]1 | 72% and 101% and 96.2% | 80.4% and 102% (2×) | 16.6% and 92.8% and 90.4% | 12.3% and 21.8% and 21.6% |  |  |  | 0.173 µM and 0.633 µM and 0.623 µM | 95.3% and 103% (2×) | 89.9% and 104% and 99.4%
6 | COc1cccc2c1C(=O)c1c(O)c3c(c(O)c1C2=O)CC(O)(C(=O)CO)CC3OC1CC(N)C(O)C(C)O1 (configuration not stated) | 95.6% and 102% and 94.8% | 84.5% and 106% and 91.1% | 79.2% and 99.9% and 86.9% | 49.4% and 91.8% and 61.5% | 30% and 74.5% and 31.3% | 12.6% and 30.7% and 10.1% |  | 1.12 µM and 6 µM and 1.58 µM |  | 
